Measured values published in BigSolDB 2.1.

CS(=O)(=O)c1ccc(C(=O)C2C(=O)CCCC2=O)c([N+](=O)[O-])c1
solubility (mole fraction) (in 2-pentanol, 283.15 K): 0.000571
solubility (mole fraction) (in 2-pentanol, 288.15 K): 0.00081
solubility (mole fraction) (in 2-pentanol, 293.15 K): 0.00114
solubility (mole fraction) (in 2-pentanol, 298.15 K): 0.00158
solubility (mole fraction) (in 2-pentanol, 303.15 K): 0.00216
solubility (mole fraction) (in 2-pentanol, 308.15 K): 0.00294
solubility (mole fraction) (in 2-pentanol, 313.15 K): 0.00396
solubility (mole fraction) (in 2-pentanol, 318.15 K): 0.00561
solubility (mole fraction) (in 2-pentanol, 323.15 K): 0.00671
solubility (mole fraction) (in MTBE, 283.15 K): 0.000245
solubility (mole fraction) (in MTBE, 288.15 K): 0.000282
solubility (mole fraction) (in MTBE, 293.15 K): 0.000322
solubility (mole fraction) (in MTBE, 298.15 K): 0.000367
solubility (mole fraction) (in MTBE, 303.15 K): 0.000397
solubility (mole fraction) (in MTBE, 308.15 K): 0.000473
solubility (mole fraction) (in MTBE, 313.15 K): 0.000536
solubility (mole fraction) (in MTBE, 318.15 K): 0.000606
solubility (mole fraction) (in MTBE, 323.15 K): 0.000684
solubility (mole fraction) (in cyclohexane, 283.15 K): 0.000321
solubility (mole fraction) (in cyclohexane, 288.15 K): 0.000402
solubility (mole fraction) (in cyclohexane, 293.15 K): 0.000486
solubility (mole fraction) (in cyclohexane, 298.15 K): 0.000616
solubility (mole fraction) (in cyclohexane, 303.15 K): 0.000733
solubility (mole fraction) (in cyclohexane, 308.15 K): 0.000888
solubility (mole fraction) (in cyclohexane, 313.15 K): 0.00104
solubility (mole fraction) (in cyclohexane, 318.15 K): 0.00122
solubility (mole fraction) (in cyclohexane, 323.15 K): 0.00168
solubility (mole fraction) (in ethanol, 283.15 K): 0.0023
solubility (mole fraction) (in ethanol, 288.15 K): 0.00264
solubility (mole fraction) (in ethanol, 293.15 K): 0.00316
solubility (mole fraction) (in ethanol, 298.15 K): 0.00386
solubility (mole fraction) (in ethanol, 303.15 K): 0.00455
solubility (mole fraction) (in ethanol, 308.15 K): 0.00535
solubility (mole fraction) (in ethanol, 313.15 K): 0.00627
solubility (mole fraction) (in ethanol, 318.15 K): 0.00734
solubility (mole fraction) (in ethanol, 323.15 K): 0.00857
solubility (mole fraction) (in ethyl acetate, 283.15 K): 0.000565
solubility (mole fraction) (in ethyl acetate, 288.15 K): 0.000707
solubility (mole fraction) (in ethyl acetate, 293.15 K): 0.000879
solubility (mole fraction) (in ethyl acetate, 298.15 K): 0.00109
solubility (mole fraction) (in ethyl acetate, 303.15 K): 0.00132
solubility (mole fraction) (in ethyl acetate, 308.15 K): 0.00163
solubility (mole fraction) (in ethyl acetate, 313.15 K): 0.00198
solubility (mole fraction) (in ethyl acetate, 318.15 K): 0.00239
solubility (mole fraction) (in ethyl acetate, 323.15 K): 0.00287
solubility (mole fraction) (in methanol, 283.15 K): 0.00351
solubility (mole fraction) (in methanol, 288.15 K): 0.00401
solubility (mole fraction) (in methanol, 293.15 K): 0.00457
solubility (mole fraction) (in methanol, 298.15 K): 0.00518
solubility (mole fraction) (in methanol, 303.15 K): 0.00567
solubility (mole fraction) (in methanol, 308.15 K): 0.00663
solubility (mole fraction) (in methanol, 313.15 K): 0.00748
solubility (mole fraction) (in methanol, 318.15 K): 0.00842
solubility (mole fraction) (in methanol, 323.15 K): 0.00946
solubility (mole fraction) (in methyl acetate, 283.15 K): 0.00134
solubility (mole fraction) (in methyl acetate, 288.15 K): 0.00152
solubility (mole fraction) (in methyl acetate, 293.15 K): 0.00173
solubility (mole fraction) (in methyl acetate, 298.15 K): 0.00194
solubility (mole fraction) (in methyl acetate, 303.15 K): 0.00225
solubility (mole fraction) (in methyl acetate, 308.15 K): 0.00255
solubility (mole fraction) (in methyl acetate, 313.15 K): 0.00293
solubility (mole fraction) (in methyl acetate, 318.15 K): 0.0033
solubility (mole fraction) (in methyl acetate, 323.15 K): 0.00381
solubility (mole fraction) (in n-butanol, 283.15 K): 0.000708
solubility (mole fraction) (in n-butanol, 288.15 K): 0.000999
solubility (mole fraction) (in n-butanol, 293.15 K): 0.00139
solubility (mole fraction) (in n-butanol, 298.15 K): 0.00193
solubility (mole fraction) (in n-butanol, 303.15 K): 0.00273
solubility (mole fraction) (in n-butanol, 308.15 K): 0.00355
solubility (mole fraction) (in n-butanol, 313.15 K): 0.00476
solubility (mole fraction) (in n-butanol, 318.15 K): 0.00601
solubility (mole fraction) (in n-butanol, 323.15 K): 0.00731
solubility (mole fraction) (in n-butyl acetate, 283.15 K): 0.000418
solubility (mole fraction) (in n-butyl acetate, 288.15 K): 0.000529
solubility (mole fraction) (in n-butyl acetate, 293.15 K): 0.000664
solubility (mole fraction) (in n-butyl acetate, 298.15 K): 0.000829
solubility (mole fraction) (in n-butyl acetate, 303.15 K): 0.00103
solubility (mole fraction) (in n-butyl acetate, 308.15 K): 0.00127
solubility (mole fraction) (in n-butyl acetate, 313.15 K): 0.00155
solubility (mole fraction) (in n-butyl acetate, 318.15 K): 0.0019
solubility (mole fraction) (in n-butyl acetate, 323.15 K): 0.00231
solubility (mole fraction) (in n-pentanol, 283.15 K): 0.000635
solubility (mole fraction) (in n-pentanol, 288.15 K): 0.000889
solubility (mole fraction) (in n-pentanol, 293.15 K): 0.00123
solubility (mole fraction) (in n-pentanol, 298.15 K): 0.00168
solubility (mole fraction) (in n-pentanol, 303.15 K): 0.00228
solubility (mole fraction) (in n-pentanol, 308.15 K): 0.00306
solubility (mole fraction) (in n-pentanol, 313.15 K): 0.00407
solubility (mole fraction) (in n-pentanol, 318.15 K): 0.00536
solubility (mole fraction) (in n-pentanol, 323.15 K): 0.007
solubility (mole fraction) (in n-propanol, 283.15 K): 0.0013
solubility (mole fraction) (in n-propanol, 288.15 K): 0.00168
solubility (mole fraction) (in n-propanol, 293.15 K): 0.00216
solubility (mole fraction) (in n-propanol, 298.15 K): 0.00274
solubility (mole fraction) (in n-propanol, 303.15 K): 0.00376
solubility (mole fraction) (in n-propanol, 308.15 K): 0.00434
solubility (mole fraction) (in n-propanol, 313.15 K): 0.0054
solubility (mole fraction) (in n-propanol, 318.15 K): 0.00669
solubility (mole fraction) (in n-propanol, 323.15 K): 0.00793
solubility (mole fraction) (in sec-butanol, 283.15 K): 0.000341
solubility (mole fraction) (in sec-butanol, 288.15 K): 0.000507
solubility (mole fraction) (in sec-butanol, 293.15 K): 0.000745
solubility (mole fraction) (in sec-butanol, 298.15 K): 0.00108
solubility (mole fraction) (in sec-butanol, 303.15 K): 0.00145
solubility (mole fraction) (in sec-butanol, 308.15 K): 0.00199
solubility (mole fraction) (in sec-butanol, 313.15 K): 0.00307
solubility (mole fraction) (in sec-butanol, 318.15 K): 0.00425
solubility (mole fraction) (in sec-butanol, 323.15 K): 0.00584
